The values that follow are results of earlier work, collected in PMC2997942 (Molecular pharmaceutics, 2010).

For series [1] the following is noted: clinical; ref Supplemental Table S6 references 1-19; cited from earlier work.
Series [2] addresses Rat kidney OCTN2. To be noted: read-out: Ki or IC50; Rat kidney OCTN2 reconstituted in liposomes; cited from earlier work.

In general, Ki refers to a dissociation constant, usually derived from enzyme kinetics or from competition with a known ligand. As to `COc1ccc2[nH]c([S+]([O-])Cc3ncc(C)c(OC)c3C)nc2c1` (centres unmarked) [Omeprazole], in series [1], the “Documented to cause rhabdomyolysis and/or carnitine deficiency in the literature” value was “Yes[6]”. Moreover, the Ki in series [2] was 14.6 µM.
